The values that follow are results of earlier work, collected in paper PMC3159814 (Bioorganic & medicinal chemistry letters, 2011).

The data set concerns GnRH receptor.

For “1,4,7,10-tetraazacyclododecane-1,4,7,10-tetraacetic acid (DOTA)-Ahx-(D-Lys^6-GnRH1) [DOTA-Ahx-(D-Lys^6-GnRH1)]”, the “GnRH receptor binding affinity” value is on record as 36.1 nM.
